Results as given in patent US7297700B2, “Bicycloheteroaryl compounds as P2X7 modulators and uses thereof” (Renovis, Inc., priority 2005, dated 2007).

test system: IL-1β release from THP-1 cells; experiment: IL-1β Release Assay (Alternate Method), THP-1 cells; assay type: cell-based, human; conditions: at 0.3 μM; THP-1 cells, BzATP-stimulated
How it was run: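 IL-1β release, measured by ELISA, follows 45 min BzATP (250 uM final) stimulation of THP-1 cells given 30 min compound pretreatment. Cells were first primed 16 h with LPS and IFN-γ (100 ng/mL each), then 2 h with fresh LPS; inhibition expressed in percent after background correction.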

Structure (SMILES)	IL-1β % inhibition
O=C(Nc1ncnc2c1CCN(S(=O)(=O)c1ccc(OC(F)(F)F)cc1)C2)C12CC3CC(CC(C3)C1)C2 [Compound 493]	++ (compound exhibited 25-50% inhibition at 0.3 μM)
CN1CCOc2cc(S(=O)(=O)N3CCc4c(ncnc4NC(=O)C45CC6CC(CC(C6)C4)C5)C3)ccc21 [Compound 494]	+++ (compound exhibited 50-75% inhibition at 0.3 μM)
Cc1nn(C)c(Cl)c1S(=O)(=O)N1CCc2c(ncnc2NC(=O)C23CC4CC(CC(C4)C2)C3)C1 [Compound 495]	++ (compound exhibited 25-50% inhibition at 0.3 μM)
O=C(Nc1ncnc2c1CCN(S(=O)(=O)c1cccc(OC(F)(F)F)c1)C2)C12CC3CC(CC(C3)C1)C2 [Compound 497]	+ (compound exhibited 0-25% inhibition at 0.3 μM)
COc1cccc(S(=O)(=O)N2CCc3c(ncnc3NC(=O)C34CC5CC(CC(C5)C3)C4)C2)c1 [Compound 498]	+ (compound exhibited 0-25% inhibition at 0.3 μM)
Cc1nc(S(=O)(=O)N2CCc3c(ncnc3NC(=O)C34CC5CC(CC(C5)C3)C4)C2)cn1C [Compound 499]	+ (compound exhibited 0-25% inhibition at 0.3 μM)
N#Cc1ccc(S(=O)(=O)N2CCc3c(ncnc3NC(=O)C34CC5CC(CC(C5)C3)C4)C2)c(Cl)c1 [Compound 500]	+++ (compound exhibited 50-75% inhibition at 0.3 μM)
O=C(Nc1ncnc2c1CCN(S(=O)(=O)c1ccccc1F)C2)C12CC3CC(CC(C3)C1)C2 [Compound 501]	++ (compound exhibited 25-50% inhibition at 0.3 μM)
Cc1noc(C)c1S(=O)(=O)N1CCc2c(ncnc2NC(=O)C23CC4CC(CC(C4)C2)C3)C1 [Compound 503]	+ (compound exhibited 0-25% inhibition at 0.3 μM)
O=C(Nc1ncnc2c1CCN(S(=O)(=O)c1ccc3oc(=O)ccc3c1)C2)C12CC3CC(CC(C3)C1)C2 [Compound 505]	+ (compound exhibited 0-25% inhibition at 0.3 μM)
O=C(Nc1ncnc2c1CCN(S(=O)(=O)c1ccc(Oc3ccccn3)cc1)C2)C12CC3CC(CC(C3)C1)C2 [Compound 506]	++++ (compound exhibited 75% or greater inhibition at 0.3 μM)
COc1ccc(Oc2ccc(S(=O)(=O)N3CCc4c(ncnc4NC(=O)C45CC6CC(CC(C6)C4)C5)C3)cc2)cc1 [Compound 509]	+++ (compound exhibited 50-75% inhibition at 0.3 μM)
O=C(Nc1ncnc2c1CCN(S(=O)(=O)c1ccc(Oc3ccc(C(F)(F)F)cc3)cc1)C2)C12CC3CC(CC(C3)C1)C2 [Compound 510]	++++ (compound exhibited 75% or greater inhibition at 0.3 μM)
COc1ccc(-c2ccc(S(=O)(=O)N3CCc4c(ncnc4NC(=O)C45CC6CC(CC(C6)C4)C5)C3)cc2)cc1 [Compound 512]	++ (compound exhibited 25-50% inhibition at 0.3 μM)
O=C(Nc1ncnc2c1CCN(S(=O)(=O)c1cc(C(F)(F)F)ccc1Cl)C2)C12CC3CC(CC(C3)C1)C2 [Compound 514]	+ (compound exhibited 0-25% inhibition at 0.3 μM)
O=C(Nc1ncnc2c1CCN(S(=O)(=O)Cc1cc(C(F)(F)F)cc(C(F)(F)F)c1)C2)C12CC3CC(CC(C3)C1)C2 [Compound 515]	+++ (compound exhibited 50-75% inhibition at 0.3 μM)
O=C(Nc1ncnc2c1CCN(S(=O)(=O)Cc1ccc(C(F)(F)F)cc1)C2)C12CC3CC(CC(C3)C1)C2 [Compound 516]	++ (compound exhibited 25-50% inhibition at 0.3 μM)
O=C(Nc1ncnc2c1CCN(S(=O)(=O)Cc1ccc(F)cc1)C2)C12CC3CC(CC(C3)C1)C2 [Compound 517]	++ (compound exhibited 25-50% inhibition at 0.3 μM)
O=C(Nc1ncnc2c1CCN(S(=O)(=O)Cc1ccc(Cl)c(Cl)c1)C2)C12CC3CC(CC(C3)C1)C2 [Compound 518]	++++ (compound exhibited 75% or greater inhibition at 0.3 μM)

Structure (SMILES)	IL-1β % inhibition
O=C(Nc1ncnc2c1CCN(S(=O)(=O)Cc1cc(Cl)cc(Cl)c1)C2)C12CC3CC(CC(C3)C1)C2 [Compound 519]	+++ (compound exhibited 50-75% inhibition at 0.3 μM)
O=C(Nc1ncnc2c1CCN(S(=O)(=O)Cc1cccc(C(F)(F)F)c1)C2)C12CC3CC(CC(C3)C1)C2 [Compound 520]	++ (compound exhibited 25-50% inhibition at 0.3 μM)
O=C(Nc1ncnc2c1CCN(S(=O)(=O)Cc1ccc(Cl)cc1)C2)C12CC3CC(CC(C3)C1)C2 [Compound 522]	+++ (compound exhibited 50-75% inhibition at 0.3 μM)
O=C(Nc1ncnc2c1CCN(S(=O)(=O)c1ccc(OC(F)F)cc1)C2)C12CC3CC(CC(C3)C1)C2 [Compound 523]	+ (compound exhibited 0-25% inhibition at 0.3 μM)
O=C(Nc1ncnc2c1CCN(S(=O)(=O)c1ccc(Oc3ccccc3)cc1)C2)C12CC3CC(CC(C3)C1)C2 [Compound 524]	++++ (compound exhibited 75% or greater inhibition at 0.3 μM)
O=C(Nc1ncnc2c1CCN(S(=O)(=O)c1ccccc1Cl)C2)C12CC3CC(CC(C3)C1)C2 [Compound 525]	+ (compound exhibited 0-25% inhibition at 0.3 μM)
O=C(Nc1ncnc2c1CCN(S(=O)(=O)c1ccc(F)c(Cl)c1)C2)C12CC3CC(CC(C3)C1)C2 [Compound 526]	++ (compound exhibited 25-50% inhibition at 0.3 μM)
O=C(Nc1ncnc2c1CCN(S(=O)(=O)c1ccccc1-c1ccccc1)C2)C12CC3CC(CC(C3)C1)C2 [Compound 527]	+++ (compound exhibited 50-75% inhibition at 0.3 μM)
O=C(Nc1ncnc2c1CCN(S(=O)(=O)c1ccccc1C(F)(F)F)C2)C12CC3CC(CC(C3)C1)C2 [Compound 528]	++ (compound exhibited 25-50% inhibition at 0.3 μM)
Cc1nn(C)c(C)c1S(=O)(=O)N1CCc2c(ncnc2NC(=O)C23CC4CC(CC(C4)C2)C3)C1 [Compound 531]	++ (compound exhibited 25-50% inhibition at 0.3 μM)
O=C(Nc1ncnc2c1CCN(S(=O)(=O)c1ccccc1OC(F)(F)F)C2)C12CC3CC(CC(C3)C1)C2 [Compound 532]	+ (compound exhibited 0-25% inhibition at 0.3 μM)
Cc1ccccc1S(=O)(=O)N1CCc2c(ncnc2NC(=O)C23CC4CC(CC(C4)C2)C3)C1 [Compound 533]	+++ (compound exhibited 50-75% inhibition at 0.3 μM)
O=C(Nc1ncnc2c1CCN(S(=O)(=O)c1ccc3c(c1)OCCO3)C2)C12CC3CC(CC(C3)C1)C2 [Compound 534]	+++ (compound exhibited 50-75% inhibition at 0.3 μM)
O=C(Nc1ncnc2c1CCN(S(=O)(=O)c1ccc(C(F)(F)F)cc1)C2)C12CC3CC(CC(C3)C1)C2 [Compound 535]	++ (compound exhibited 25-50% inhibition at 0.3 μM)
O=C(Nc1ncnc2c1CCN(S(=O)(=O)c1ccc(Cl)cc1F)C2)C12CC3CC(CC(C3)C1)C2 [Compound 536]	++ (compound exhibited 25-50% inhibition at 0.3 μM)
O=C(Nc1ncnc2c1CCN(S(=O)(=O)c1cc(F)ccc1F)C2)C12CC3CC(CC(C3)C1)C2 [Compound 537]	++ (compound exhibited 25-50% inhibition at 0.3 μM)
O=C(Nc1ncnc2c1CCN(S(=O)(=O)c1cc(Cl)ccc1Cl)C2)C12CC3CC(CC(C3)C1)C2 [Compound 538]	++ (compound exhibited 25-50% inhibition at 0.3 μM)
O=C(Nc1ncnc2c1CCN(S(=O)(=O)c1cc(Cl)ccc1F)C2)C12CC3CC(CC(C3)C1)C2 [Compound 539]	++ (compound exhibited 25-50% inhibition at 0.3 μM)
